Reference: US8148422B2, “Sulfonamides as TRPM8 modulators” (Janssen Pharmaceutica, NV, priority 2008, dated 2012)

Biological target: T1, canine TRPM8 (Canis lupus familiaris, UniProt Q1A7N1)
T1 construct: expressed in transfected cells
Experiment: In vitro canine TRPM8 functional assay (Ca2+-sensitive fluorescent dye, FLIPR or FDSS, icilin challenge)
Type: cell-based
Settings: HEK293 cells stably expressing canine TRPM8; for inhibition at 0.2 µM: 0.2 μM compound, icilin challenge; for IC50: icilin at approx. 80% maximal response, eight-point dose-response, single determinations unless otherwise noted, read-out: IC50
Description: The functional activity of compounds of the formula (I) was determined by measuring changes in intracellular calcium concentration using a Ca^2+-sensitive fluorescent dye. The changes in fluorescent signal were monitored by a fluorescence plate reader, either a FLIPR™ (Molecular Devices) or FDSS (Hamamatsu).
At 24 hrs prior to assay, HEK293 cells stably expressing canine TRPM8 were seeded in culture medium in black wall, clear-base poly-D-lysine coated 384-well plates (BD Biosciences, NJ, USA) and grown overnight in 5% CO2 at 37° C. On assay day, growth media was removed and cells were loaded with Calcium 3 Dye (Molecular Devices) for 35 min at 37° C., under 5% CO2 and then for 25 min at room temperature and atmosphere. Subsequently, cells were tested for agonist-induced increases in intracellular Ca^2+ levels using FLIPR™ or FDSS. Cells were challenged with a compound of the Formula (I) (at varying concentrations) and intracellular Ca^2+ was measured for 5 min prior to the addition of icilin to all wells to achieve a final concentration that produces approximately an 80% maximal response. EC50 or IC50 values for compounds of the present invention were determined from eight-point dose-response studies. Curves were generated using the average of quadruplicate wells for each data point.

T1 sequence (Q1A7N1 1-1104): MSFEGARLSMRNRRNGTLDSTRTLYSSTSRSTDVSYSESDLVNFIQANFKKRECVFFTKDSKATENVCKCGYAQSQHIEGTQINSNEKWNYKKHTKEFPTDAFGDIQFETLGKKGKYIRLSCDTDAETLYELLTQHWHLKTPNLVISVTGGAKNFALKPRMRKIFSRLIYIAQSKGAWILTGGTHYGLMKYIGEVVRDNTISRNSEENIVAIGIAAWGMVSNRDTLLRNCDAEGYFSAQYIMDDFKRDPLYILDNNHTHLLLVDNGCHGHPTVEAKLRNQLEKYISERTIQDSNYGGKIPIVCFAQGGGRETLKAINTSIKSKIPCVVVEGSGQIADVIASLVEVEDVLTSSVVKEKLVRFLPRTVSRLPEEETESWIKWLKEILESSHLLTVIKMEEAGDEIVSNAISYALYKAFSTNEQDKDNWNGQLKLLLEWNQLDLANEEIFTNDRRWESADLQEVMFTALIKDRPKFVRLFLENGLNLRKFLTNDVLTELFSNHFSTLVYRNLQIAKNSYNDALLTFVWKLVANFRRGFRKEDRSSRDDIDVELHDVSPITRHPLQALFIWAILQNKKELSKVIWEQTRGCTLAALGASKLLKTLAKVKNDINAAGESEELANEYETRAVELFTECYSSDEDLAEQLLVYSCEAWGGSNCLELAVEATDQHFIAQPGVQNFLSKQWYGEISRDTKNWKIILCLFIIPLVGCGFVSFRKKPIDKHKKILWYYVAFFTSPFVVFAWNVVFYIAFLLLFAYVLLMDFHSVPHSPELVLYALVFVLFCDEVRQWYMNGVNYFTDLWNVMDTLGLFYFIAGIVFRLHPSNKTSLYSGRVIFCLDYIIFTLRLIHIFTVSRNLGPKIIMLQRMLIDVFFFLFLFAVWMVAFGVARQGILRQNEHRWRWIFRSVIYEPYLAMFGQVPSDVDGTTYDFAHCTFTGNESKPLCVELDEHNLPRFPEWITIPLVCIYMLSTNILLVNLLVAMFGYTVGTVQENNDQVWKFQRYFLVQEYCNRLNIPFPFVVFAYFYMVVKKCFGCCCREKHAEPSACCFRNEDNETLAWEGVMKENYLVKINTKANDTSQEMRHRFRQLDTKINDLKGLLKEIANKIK

inhibition at 0.2 µM | IC50 | Structure (SMILES)
99% | 36 nM | CCN(CCS(=O)(=O)N(CCCCC(F)(F)F)c1sc2ccccc2c1C)CC(C)C [Cpd 89, N-(3-Methylbenzo[b]thiophen-2-yl)-N-(5,5,5-tritluoro-n-pent-1-yl)-2-(ethyl-isobutylamino)ethylsulfonamide]
99% | 9 nM | Cc1c(N(Cc2ccc(OC(F)(F)F)cc2)S(=O)(=O)CCN2CCC(F)(F)C2)sc2ccccc12 [Cpd 45, N-(3-Methylbenzo[b]thiophen-2-yl)-N-(4-trifluoromethoxy-benzyl)-2-(3,3-difluoropyrrolidin-1-yl)ethylsulfonamide]
100% | 8 nM | Cc1c(N(Cc2ccc(OC(F)(F)F)cc2)S(=O)(=O)CCN(C(C)C)C(C)C)sc2ccccc12 [Cpd 59, N-(3-Methylbenzo[b]thiophen-2-yl)-N-(4-trifluoromethoxy-benzyl)-2-(di-isopropylamino)ethylsulfonamide]
103% | 23 nM | CCCN(CCS(=O)(=O)N(CCC1CC1)c1sc2ccccc2c1C)CC(C)C [Cpd 95, N-(3-Methylbenzo[b]thiophen-2-yl)-N-(2-cyclopropyl-ethyl)-2-(n-propyl-isobutylamino)ethylsulfonamide]
100% | 16 nM | CCCN(CCS(=O)(=O)N(Cc1ccc(OC(F)(F)F)cc1)c1sc2ccccc2c1C)CC(C)C [Cpd 82, N-(3-Methylbenzo[b]thiophen-2-yl)-N-(4-trifluoromethoxy-benzyl)-2-(isobutyl-propylamino)ethylsulfonamide]
101% | 5 nM | Cc1c(N(Cc2ccc(OC(F)(F)F)cc2)S(=O)(=O)CCN2CCCC(F)(F)C2)sc2ccccc12 [Cpd 43, N-(3-Methylbenzo[b]thiophen-2-yl)-N-(4-trifluoromethoxy-benzyl)-2-(3,3-difluoropiperidin-1-yl)ethylsulfonamide]
99% | 50 nM | CCCN(CCS(=O)(=O)N(CCCCC(F)(F)F)c1sc2ccccc2c1C)CC(C)C [Cpd 91, N-(3-Methylbenzo[b]thiophen-2-yl)-N-(5,5,5-tritluoro-n-pent-1-yl)-2-(n-propyl-isobutylamino)ethylsulfonamide]
99% | 25 nM | Cc1c(N(Cc2ccc(OC(F)(F)F)cc2)S(=O)(=O)CCN2CCC(O)CC2)sc2ccccc12 [Cpd 20, N-(3-Methylbenzo[b]thiophen-2-yl)-N-(4-trifluoromethoxy-benzyl)-2-(4-hydroxypiperidin-1-yl)ethylsulfonamide]
100% | 4 nM | Cc1c(N(Cc2ccc(F)c(C(F)(F)F)c2)S(=O)(=O)CCN2CCCC(F)(F)C2)sc2ccccc12 [Cpd 70, N-(3-Methylbenzo[b]thiophen-2-yl)-N-(4-fluoro-3-trifluoromethyl-benzyl)-2-(3,3-difluoropiperidin-1-yl)ethylsulfonamide]
99% | 34 nM | Cc1c(N(Cc2ccc(OC(F)(F)F)cc2)S(=O)(=O)CCN2CCC(C)CC2)sc2ccccc12 [Cpd 19, N-(3-Methylbenzo[b]thiophen-2-yl)-N-(4-trifluoromethoxy-benzyl)-2-(4-methylpiperidin-1-yl)ethylsulfonamide]
87% | 28 nM | O=S(=O)(CCN1CCOCC1)N(Cc1ccc(OC(F)(F)F)cc1)c1ccc2ccccc2c1 [Cpd 51, N-(Naphth-2-yl)-N-(4-trifluoromethoxy-benzyl)-2-(morpholin-4-yl)ethylsulfonamide]
103% | 27 nM | CCN(CCS(=O)(=O)N(CCC1CC1)c1sc2ccccc2c1C)CC(C)C [Cpd 94, N-(3-Methylbenzo[b]thiophen-2-yl)-N-(2-cyclopropyl-ethyl)-2-(ethyl-isobutylamino)ethylsulfonamide]
100% | 29 nM | Cc1c(N(Cc2ccc(OC(F)(F)F)cc2)S(=O)(=O)CCN2CCc3ccccc3C2)sc2ccccc12 [Cpd 40, N-(3-Methylbenzo[b]thiophen-2-yl)-N-(4-trifluoromethoxy-benzyl)-2-(1,2,3,4-tetrahydro-isoquinolin-2-yl)ethylsulfonamide]
100% | 14 nM | Cc1c(N(Cc2ccc(OC(F)(F)F)cc2)S(=O)(=O)CCNCC(F)(F)F)sc2ccccc12 [Cpd 60, N-(3-Methylbenzo[b]thiophen-2-yl)-N-(4-trifluoromethoxy-benzyl)-2-(2,2,2-trifluoroethylamino)ethylsulfonamide]
91% | 59 nM | CC(=O)N(CCS(=O)(=O)N(CCCCC(F)(F)F)c1sc2ccccc2c1C)CC(C)C [Cpd 88, N-(3-Methylbenzo[b]thiophen-2-yl)-N-(5,5,5-trifluoro-n-pent-1-yl)-2-(N-acetyl-isobutylamino)ethylsulfonamide]
99% | 30 nM | Cc1c(N(Cc2ccc(OC(F)(F)F)cc2)S(=O)(=O)CCN2CCC(O)C2)sc2ccccc12 (stereo not drawn) [Cpd 38, N-(3-Methylbenzo[b]thiophen-2-yl)-N-(4-trifluoromethoxy-benzyl)-2-(3-hydroxypyrrolidin-1-yl)ethylsulfonamide]
101% | 20 nM | Cc1c(N(Cc2ccc(OC(F)(F)F)cc2)S(=O)(=O)CCN2CCNC(=O)C2)sc2ccccc12 [Cpd 27, N-(3-Methylbenzo[b]thiophen-2-yl)-N-(4-trifluoromethoxy-benzyl)-2-(3-oxopiperazin-1-yl)ethylsulfonamide]
100% | 29 nM | O=S(=O)(CCN1CCSCC1)N(Cc1ccc(OC(F)(F)F)cc1)c1sc2ccccc2c1Br [Cpd 66, N-(3-Bromobenzo[b]thiophen-2-yl)-N-(4-trifluoromethoxy-benzyl)-2-(thiomorpholin-4-yl)ethylsulfonamide]
99% | 12 nM | Cc1c(N(Cc2ccc(F)cc2)S(=O)(=O)CCN2CCCC(F)(F)C2)sc2ccccc12 [Cpd 69, N-(3-Methyl-benzo[b]thiophen-2-yl)-N-(4-fluoro-benzyl)-2-(3,3-difluoropiperidin-1-yl)-ethylsulfonamide]
99% | 45 nM | Cc1c(N(Cc2ccc(OC(F)(F)F)cc2)S(=O)(=O)CCN2CCC(C(F)(F)F)CC2)sc2ccccc12 [Cpd 44, N-(3-Methylbenzo[b]thiophen-2-yl)-N-(4-trifluoromethoxy-benzyl)-2-(4-trifluoromethylpiperidin-1-yl)ethylsulfonamide]
99% | 17 nM | CCN(CCS(=O)(=O)N(Cc1ccc(OC(F)(F)F)cc1)c1sc2ccccc2c1C)CC(C)C [Cpd 83, N-(3-Methylbenzo[b]thiophen-2-yl)-N-(4-trifluoromethoxy-benzyl)-2-(isobutyl-ethylamino)ethylsulfonamide]
87% | 42 nM | O=S(=O)(CCN1CCSCC1)N(Cc1ccc(OC(F)(F)F)cc1)c1ccc2ccccc2c1 [Cpd 52, N-(Naphth-2-yl)-N-(4-trifluoromethoxy-benzyl)-2-(thiomorpholin-4-yl)ethylsulfonamide]
19% |  | Cc1c(N(Cc2ccc(OC(F)(F)F)cc2)S(=O)(=O)CCNCC(C)C)sc2ccccc12 [Cpd 73, N-(3-Methylbenzo[b]thiophen-2-yl)-N-(4-trifluoromethoxy-benzyl)-2-(isobutylamino)ethylsulfonamide]
